This passage reports IC50 results from US20170166555A1, “FUNCTIONALISED AND SUBSTITUTED INDOLES AS ANTI-CANCER AGENTS” (Novogen Limited, priority 2013, published 2017).

The structures appear in SMILES notation. Where two headings read alike, the source gives them in different places.

What all share (assay): Anti-proliferative assay, cell-titre luminescent reagent, 72 h (GVK-BIO)
Holding throughout (type): cell-based

In experiment [1] the test system is DU145 prostate cancer cells. As to conditions: Homo sapiens. As for the experimental part:
(§1) The ability of compounds 4001, 4002, 4008, 4010, 4011, 4013-4015, 4018, 4026, 4045-4113 and 4115-4127 to inhibit the proliferation of cancer cells representative of neuroblastoma, melanoma, prostate cancer, colorectal cancer, non-small cell lung carcinoma, and triple negative breast cancer was assessed. These studies were conducted by contract research (GVK-BIO). Briefly, a pre-determined number of cells as calculated from cell growth assays for each of the cell lines employed were seeded into their respective culture medium (using ATCC culture parameters—http://www.atcc.org) and cultured for 24 h at 37° C. and 5% CO2 in 96-well culture plates. Once attached, each cell line was then exposed to various concentrations of each respective analogue (30, 3, 0.3 and 0.03 μM for compounds in Tables 2, 3 and 4; 30, 10, 3, 1, 0.3 and 0.1 μM for compounds in Table 5), cultured for a further 72 h and exposed to cell-titre luminescent reagent (100 μL/well) for a further 30 min). Luminescence was captured using an EnVision multilabel reader and the data for each analogue concentration compared against no treatment control. For compounds in Tables 2-4, semi-log plots of Percent of Control versus concentration were prepared and IC50 determined using linear regression analysis. For compounds in Table 5, cell viability was normalized to control (vehicle alone) and dose-response curves, and half maximal effective concentration (EC50) values were determined using Graph Pad Prism 6 (nonlinear regression sigmoidal dose-response variable slope).

Experiment [2] deals with SK-N-SH neuroblastoma cells. To be noted: Homo sapiens. As for the experimental part:
as §1

In experiment [3] the test system is MDA-MB-231 triple negative breast cancer cells. As to conditions: Homo sapiens. As for the experimental part: as §1
Experiment [4] has as its system SK-Mel-28 melanoma cells. To be noted: Homo sapiens. As for the experimental part: as §1
In experiment [5] the test system is CaCo2 colorectal cancer cells. As to conditions: Homo sapiens. As for the experimental part:
as §1

The subject of experiment [6] is A549 non-small cell lung carcinoma cells. As to conditions: Homo sapiens, read-out: IC50/μM Lung (NSLC) A549. As to the method: as §1
Experiment [7] has as its system PC3 prostate cancer cells. As to the method: as §1
The mark [8] stands for this setting: DU-145, 72 h, 30, 3, 0.3 and 0.03 μM, linear regression (Tables 2-4).
Setting [9] is: SK-N-SH, 30, 3, 0.3 and 0.03 μM, linear regression (Tables 2-4).
[10] abbreviates: MDA-MB-231, 72 h, 30, 3, 0.3 and 0.03 μM, linear regression (Tables 2-4).
Where [11] appears, read: SK-MEL-28, 72 h, 30, 3, 0.3 and 0.03 μM, linear regression (Tables 2-4).
[12] abbreviates: Caco-2, 72 h, 30, 3, 0.3 and 0.03 μM, linear regression (Tables 2-4).
Where [13] appears, read: A549, 72 h, 30, 3, 0.3 and 0.03 μM, linear regression (Tables 2-4).
Setting [14] is: 30, 3, 0.3 and 0.03 μM, linear regression (Tables 2-4).
Setting [15] is: DU-145, 72 h, 30, 10, 3, 1, 0.3 and 0.1 μM, nonlinear regression (Table 5).
Where [16] appears, read: SK-N-SH, 30, 10, 3, 1, 0.3 and 0.1 μM, nonlinear regression (Table 5).
Setting [17] is: MDA-MB-231, 72 h, 30, 10, 3, 1, 0.3 and 0.1 μM, nonlinear regression (Table 5).
[18] abbreviates: SK-MEL-28, 72 h, 30, 10, 3, 1, 0.3 and 0.1 μM, nonlinear regression (Table 5).
Where [19] appears, read: Caco-2, 72 h, 30, 10, 3, 1, 0.3 and 0.1 μM, nonlinear regression (Table 5).
The mark [20] stands for this setting: A549, 72 h, 30, 10, 3, 1, 0.3 and 0.1 μM, nonlinear regression (Table 5).
Setting [21] is: 30, 10, 3, 1, 0.3 and 0.1 μM, nonlinear regression (Table 5).

Consider `COc1cccc(NC(=O)c2ccc(Cc3ccc4c(ccn4CCCN(C)C)c3)cc2)c1` [Compound 4081, 4-((1-(3-(dimethylamino)propyl)-1H-indol-5-yl)methyl)-N-(3-methoxyphenyl)benzamide], for which the IC50 in experiment [1] (setting [8]) came to 2.9 µM; in experiment [2] (setting [9]) it was 1.6 µM; in experiment [3] (setting [10]) it was 2.5 µM; in experiment [4] (setting [11]) it was 2.3 µM; in experiment [5] (setting [12]) it was 3.1 µM; in experiment [6] (setting [13]), 2.9 µM. Besides, in experiment [7] (setting [14]), the IC50 stood at 2.1 µM.

Take `CN(C)CCCn1ccc2cc(Oc3cccc(C(=O)Nc4ccc5c(c4)OCO5)c3)ccc21` [Compound 4058, N-(benzo[d][1,3]dioxol-5-yl)-3-((1-(3-(dimethylamino)propyl)-1H-indol-5-yl)oxy)benzamide]: the IC50 in experiment [1] (setting [8]) amounted to 4.7 µM; in experiment [2] (setting [9]), 3.4 µM; in experiment [3] (setting [10]), 3.8 µM; in experiment [4] (setting [11]) it was 2.7 µM; in experiment [5] (setting [12]), 9.7 µM; in experiment [6] (setting [13]) it was 4.7 µM. This compound displayed an IC50 in experiment [7] (setting [14]) of 7.2 µM.

Take `Cc1c(C)n(CCCN(C)C)c2ccc(Cc3ccc(C(=O)Nc4ccccc4)cc3)cc12` [Compound 4087, 4-((1-(3-(dimethylamino)propyl)-2,3-dimethyl-1H-indol-5-yl)methyl)-N-phenylbenzamide]: the IC50 in experiment [1] (setting [15]) was 7.1 µM; in experiment [2] (setting [16]) it was 5.6 µM; in experiment [3] (setting [17]), 7.5 µM; in experiment [4] (setting [18]), 4.8 µM; in experiment [5] (setting [19]), 23.1 µM; in experiment [6] (setting [20]) it was 8.9 µM. In experiment [7] (setting [21]), the IC50 is 7.4 µM.

For `COc1ccc(NC(=O)c2ccc(Cc3ccc4c(ccn4CCCN(C)C)c3)cc2)cc1` [Compound 4078, 4-((1-(3-(dimethylamino)propyl)-1H-indol-5-yl)methyl)-N-(4-methoxyphenyl)benzamide], the IC50 was determined as 1.4 µM in experiment [1] (setting [8]); 6.5 µM in experiment [2] (setting [9]); 1.6 µM in experiment [3] (setting [10]); 1.9 µM in experiment [4] (setting [11]); 3.6 µM in experiment [5] (setting [12]); 1.4 µM in experiment [6] (setting [13]). This compound also gave an IC50 in experiment [7] (setting [14]) of 1.2 µM.

Turning to `COc1ccc(NC(=O)c2ccc(Oc3ccc4c(ccn4CCCN(C)C)c3)cc2)cc1` [Compound 4089, 4-((1-(3-(dimethylamino)propyl)-1H-indol-5-yl)oxy)-N-(4-methoxyphenyl)benzamide], the IC50 was determined as 4.4 µM in experiment [1] (setting [15]); 4.4 µM in experiment [2] (setting [16]); 5.2 µM in experiment [3] (setting [17]); 4.3 µM in experiment [4] (setting [18]); 13.2 µM in experiment [5] (setting [19]); 7.7 µM in experiment [6] (setting [20]). The IC50 in experiment [7] (setting [21]) stood at 4.4 µM.

For `COc1ccc(NC(=O)c2cccc(Cc3ccc4c(c3)c(C)c(C)n4CCCN(C)C)c2)cc1` [Compound 4051], the IC50 in experiment [1] (setting [8]) is 4.9 µM; in experiment [2] (setting [9]), 4.3 µM; in experiment [3] (setting [10]), 4.5 µM; in experiment [4] (setting [11]), 3.4 µM; in experiment [5] (setting [12]), 16.1 µM; in experiment [6] (setting [13]) it was 4.1 µM. This compound also had an IC50 in experiment [7] (setting [14]) of 17.3 µM.

On to `COc1cccc(NC(=O)c2ccc(Oc3ccc4c(ccn4CCCN(C)C)c3)cc2)c1` [Compound 4092, 4-((1-(3-(dimethylamino)propyl)-1H-indol-5-yl)oxy)-N-(3-methoxyphenyl)benzamide], for which the IC50 turned out to be 16.7 µM in experiment [1] (setting [15]); 13.8 µM in experiment [2] (setting [16]); 22.6 µM in experiment [3] (setting [17]); 13.3 µM in experiment [4] (setting [18]); 17.1 µM in experiment [5] (setting [19]); 8.3 µM in experiment [6] (setting [20]). The compound further yielded an IC50 in experiment [7] (setting [21]) of 38.3 µM.

Turning to `CN(C)CCCn1ccc2cc(Cc3ccc(C(=O)Nc4cccc(F)c4)cc3)ccc21` [Compound 4080, 4-((1-(3-(dimethylamino)propyl)-1H-indol-5-yl)methyl)-N-(3-fluorophenyl)benzamide], the IC50 was determined as 3.5 µM in experiment [1] (setting [8]); 2.8 µM in experiment [2] (setting [9]); 3.2 µM in experiment [3] (setting [10]); 3.1 µM in experiment [4] (setting [11]); 3 µM in experiment [5] (setting [12]); 3.1 µM in experiment [6] (setting [13]). For the same compound, the IC50 in experiment [7] (setting [14]) was found to be 3 µM.

In the case of `Cc1c(C)n(CCCN2CCN(C)CC2)c2ccc(C(=O)N3CCN(CCc4ccc(O)cc4)CC3)cc12` [Compound 4122, (2,3-dimethyl-1-(3-(4-methylpiperazin-1-yl)propyl)-1H-indol-5-yl)(4-(4-hydroxyphenethyl)piperazin-1-yl)methanone], the IC50 in experiment [1] (setting [15]), in experiment [2] (setting [16]), in experiment [3] (setting [17]), in experiment [4] (setting [18]), in experiment [5] (setting [19]) and in experiment [6] (setting [20]) was more than 30 µM throughout. In experiment [7] (setting [21]), this compound registered an IC50 of more than 30 µM.

As for `Cc1c(C)n(CCCN2CCN(C)CC2)c2ccc(C(=O)N3CCN(CCc4cccc(O)c4)CC3)cc12` [Compound 4126, (2,3-dimethyl-1-(3-(4-methylpiperazin-1-yl)propyl)-1H-indol-5-yl)(4-(3-hydroxyphenethyl)piperazin-1-yl)methanone], the IC50 in experiment [1] (setting [15]), in experiment [2] (setting [16]), in experiment [3] (setting [17]), in experiment [4] (setting [18]), in experiment [5] (setting [19]) and in experiment [6] (setting [20]) was more than 30 µM throughout. The compound further showed an IC50 in experiment [7] (setting [21]) of more than 30 µM.

For `COc1cccc(NC(=O)c2cccc(Nc3ccc4c(c3)c(C)c(C)n4CCCN(C)C)c2)c1` [Compound 4076, 3-((1-(3-(dimethylamino)propyl)-2,3-dimethyl-1H-indol-5-yl)amino)-N-(3-methoxyphenyl)benzamide], the IC50 in experiment [1] (setting [8]) was 3.2 µM; in experiment [2] (setting [9]), 2.8 µM; in experiment [3] (setting [10]), 1.7 µM; in experiment [4] (setting [11]) it was 2.1 µM; in experiment [5] (setting [12]), 2.9 µM; in experiment [6] (setting [13]), 1.8 µM. Also, the IC50 in experiment [7] (setting [14]) came out at 3.7 µM.

On to `Cc1c(C)n(CCCN(C)C)c2ccc(Nc3cccc(C(=O)Nc4ccc5c(c4)OCO5)c3)cc12` [Compound 4074, N-(benzo[d][1,3]dioxol-5-yl)-3-((1-(3-(dimethylamino)propyl)-2,3-dimethyl-1H-indol-5-yl)amino)benzamide], for which the IC50 in experiment [1] (setting [8]) stood at 2.8 µM; in experiment [2] (setting [9]), 1.3 µM; in experiment [3] (setting [10]), 1.5 µM; in experiment [4] (setting [11]), 2.7 µM; in experiment [5] (setting [12]), 2.4 µM; in experiment [6] (setting [13]), 2.5 µM. In experiment [7] (setting [14]), this compound showed an IC50 of 22.7 µM.

Turning to `Cc1c(C)n(CCCN(C)C)c2ccc(Nc3cccc(C(=O)Nc4cccc(F)c4)c3)cc12` [Compound 4075, 3-((1-(3-(dimethylamino)propyl)-2,3-dimethyl-1H-indol-5-yl)amino)-N-(3-fluorophenyl)benzamide], the IC50 in experiment [1] (setting [8]) was 3 µM; in experiment [2] (setting [9]), 2.6 µM; in experiment [3] (setting [10]), 2.6 µM; in experiment [4] (setting [11]), 2.7 µM; in experiment [5] (setting [12]), 3.3 µM; in experiment [6] (setting [13]), 2.9 µM. In addition, in experiment [7] (setting [14]), the IC50 came to 4.5 µM.

`COc1ccc(NC(=O)c2ccc(Nc3ccc4c(c3)c(C)c(C)n4CCCN(C)C)cc2)cc1` [Compound 4105, 4-((1-(3-(dimethylamino)propyl)-2,3-dimethyl-1H-indol-5-yl)amino)-N-(4-methoxyphenyl)benzamide]: the IC50 was 3.6 µM in experiment [1] (setting [8]); 3.4 µM in experiment [2] (setting [9]); 2.7 µM in experiment [3] (setting [10]); 2.6 µM in experiment [4] (setting [11]); 2.6 µM in experiment [5] (setting [12]); 3.6 µM in experiment [6] (setting [13]). The compound also displayed an IC50 in experiment [7] (setting [14]) of 3.7 µM.
